Reference: ChEMBL document CHEMBL3588847, “1,5-Diarylpyrazole and vanillin hybrids: Synthesis, biological activity and DFT studies” (Eur J Med Chem, 2015)
Each block holds one molecule with its values, some of them ahead of it. Active and inactive are the calls of the source. The calls are words filed in the database; no cut-off is given here.

Assays:
[1] = Antioxidant activity assessed as DPPH radical scavenging activity; type: physicochemical
[2] = Antioxidant activity assessed as AAPH radical scavenging activity by measuring Trolox equivalents after 90 mins by fluorescein probe based ORAC assay; type: physicochemical; settings: 1.5 h
Rattus norvegicus [3] = test: Hypoglycemic effect in Wistar rat model of streptozotocin-induced type-2 diabetes mellitus assessed as reduction in blood glucose level at 50 mg/kg, ig after 7 hrs; type: functional; settings: po
Rattus norvegicus [4] = test: Hypoglycemic effect in Wistar rat model of streptozotocin-induced type-2 diabetes mellitus assessed as reduction in blood glucose level at 5 mg/kg, ig after 7 hrs; type: functional, organism-based
[5] = Antioxidant activity assessed as DPPH radical scavenging activity at 20 mg/ml; type: physicochemical
[6] = Antioxidant activity assessed as DPPH radical scavenging activity at 20 µg/ml; type: physicochemical
[7] = Antioxidant activity assessed as DPPH radical scavenging activity at […]; type: physicochemical

SMILES: COc1cc(/C=N/NC(=O)c2nn(-c3ccc(Cl)c(Cl)c3)c(-c3ccc(Cl)cc3)c2C)ccc1O
EC50 [1]: 2.6 mM | Activity [2]: 432 g⁻¹ | inhibition in vivo at 50 mg/kg (Rattus norvegicus [3]): 33.3%

SMILES: COc1ccc(Cl)cc1C(=O)NCCc1ccc(S(=O)(=O)NC(=O)NC2CCCCC2)cc1
Activity (Rattus norvegicus [4]): Active

SMILES: COc1cc(/C=N/NC(=O)c2nn(-c3ccc(F)cc3F)c(-c3ccc(F)cc3)c2C)ccc1O
EC50 [1]: 3.54 mM | Activity [2]: 891 g⁻¹

SMILES: COc1cc(/C=N/NC(=O)c2nn(-c3ccc(F)cc3F)c(-c3ccc(C(F)(F)F)cc3)c2C)ccc1O
EC50 [1]: 2.9 mM | Activity [2]: 993 g⁻¹

SMILES: COc1cc(/C=N/NC(=O)c2nn(-c3ccc(Cl)cc3Cl)c(-c3ccc(Cl)cc3)c2C)ccc1O
EC50 [1]: 3.55 mM | Activity [2]: 634 g⁻¹ | inhibition in vivo at 50 mg/kg (Rattus norvegicus [3]): 64.9%

SMILES: Cc1c(C(=O)O)nn(-c2ccc(Cl)cc2Cl)c1-c1ccc(Cl)cc1
inhibition (INH) [5]: 17%

SMILES: COc1cc(/C=N/NC(=O)c2nn(-c3ccc(F)c(Cl)c3)c(-c3ccc(F)cc3)c2C)ccc1O
EC50 [1]: 6.92 mM | Activity [2]: 525 g⁻¹

SMILES: COc1cc(/C=N/NC(=O)c2nn(-c3ccc(C(F)(F)F)cc3)c(-c3ccc(Br)cc3)c2C)ccc1O
EC50 [1]: 2.91 mM

SMILES: COc1cc(/C=N/NC(=O)c2nn(-c3ccc(C(F)(F)F)cc3)c(-c3ccc(Cl)cc3)c2C)ccc1O
EC50 [1]: 2.34 mM | Activity [2]: 867 g⁻¹

SMILES: COc1cc(/C=N/NC(=O)c2nn(-c3ccc(Cl)cc3Cl)c(-c3ccc(C(F)(F)F)cc3)c2C)ccc1O
EC50 [1]: 4.24 mM | Activity [2]: 401 g⁻¹ | inhibition in vivo at 50 mg/kg (Rattus norvegicus [3]): 35.3%

SMILES: COc1cc(/C=N/NC(=O)c2nn(-c3ccc(F)c(Cl)c3)c(-c3ccc(Cl)cc3)c2C)ccc1O
EC50 [1]: 3.56 mM | Activity [2]: 882 g⁻¹

More lines, main results first:

EC50 [1]: 2.07 mM
SMILES: O=C1O[C@H]([C@@H](O)CO)C(O)=C1O [ASCORBIC ACID]

EC50 [1]: 2.46 mM | Activity [2]: 611 g⁻¹
SMILES: COc1cc(/C=N/NC(=O)c2nn(-c3ccccc3)c(-c3ccccc3)c2C)ccc1O

EC50 [1]: 6.45 mM
SMILES: COc1cc(/C=N/NC(=O)c2nn(-c3ccnc4cc(Cl)ccc34)c(-c3ccc(F)cc3)c2C)ccc1O

EC50 [1]: 2.99 mM | Activity [2]: 1076 g⁻¹
SMILES: COc1cc(/C=N/NC(=O)c2nn(-c3ccc(Cl)cc3Cl)c(-c3ccccc3)c2C)ccc1O
inhibition in vivo at 50 mg/kg (Rattus norvegicus [3]): 26.6%

EC50 [1]: 65.8 mM | Activity [2]: 2979 g⁻¹
SMILES: COc1cc(C(=O)O)ccc1O [VANILLIC ACID]

EC50 [1]: 4.59 mM
SMILES: COc1cc(/C=N/NC(=O)c2nn(-c3ccnc4cc(Cl)ccc34)c(-c3ccc(Cl)cc3)c2C)ccc1O

inhibition (INH) [6]: 7% | inhibition (INH) [7]: 75%
SMILES: COc1cc(C=O)ccc1O [VANILLIN]
